Experimental data published in patent US20110306568A1, “COMPOSITION CONTAINING GLUCOSYLGLYCEROL” (priority 2008, published 2011).

How the values were obtained:
Type in all cases: cell-based
[1] = system: Candida albicans; assay: Viable count of yeast fungi Candida albicans in aqueous glucosylglycerol solution with 3.5% w/w glucose; conditions: C. albicans; for Colony-forming units (CFU/g): 50% w/w glucosylglycerol, 3.5% w/w glucose, aqueous
Description: (§1) In addition, a another test was analogously conducted with mold Aspergillus niger and yeast fungi Candida albicans , with an aqueous solution containing 50% w/w of 2-O-α-D glucosylglycerol and 3.5% w/w of glucose being used in this case.

[2] = system: Aspergillus niger; assay: Viable count of mold Aspergillus niger in aqueous glucosylglycerol solution with 3.5% w/w glucose; conditions: A. niger; for Colony-forming units (CFU/g): 50% w/w glucosylglycerol, 3.5% w/w glucose, aqueous
Description: as §1

[3] = system: E. coli DSM 1576; assay: Viable count of E. coli DSM 1576 in aqueous glucosylglycerol solutions with 5% w/w glucose; conditions: for Colony-forming units (CFU/g): 5% w/w glucose, aqueous
[4] = glucosylglycerol of high concentration

For `OCC(CO)O[C@H]1O[C@H](CO)[C@@H](O)[C@H](O)[C@H]1O` [Glucosylglycerol, 2-O-α-D-glucosylglycerol], the “Colony-forming units (CFU/g)” value ([1]; 0 days) was 750,000 CFU/g, the “Colony-forming units (CFU/g)” value ([1]; 2 days) was 320,000 CFU/g and the “Colony-forming units (CFU/g)” value ([1]; 7 days) was 200,000 CFU/g. For the same molecule, the “Colony-forming units (CFU/g)” value ([1]; 14 days) was 190,000 CFU/g, the “Colony-forming units (CFU/g)” value ([1]; 21 days) was 120,000 CFU/g and the “Colony-forming units (CFU/g)” value ([1]; 28 days) was 45,000 CFU/g. The fungicidal effect [1, 4] was “fungicidal effects”, the “Colony-forming units (CFU/g)” value ([2]; 0 days) was 750,000 CFU/g and the “Colony-forming units (CFU/g)” value ([2]; 2 days) was 350,000 CFU/g. The “Colony-forming units (CFU/g)” value ([2]; 7 days) was 200,000 CFU/g, the “Colony-forming units (CFU/g)” value ([2]; 14 days) was 170,000 CFU/g and the “Colony-forming units (CFU/g)” value ([2]; 21 days) was 160,000 CFU/g. For the same molecule, the “Colony-forming units (CFU/g)” value ([2]; 28 days) was 12,000 CFU/g, the fungicidal effect [2, 4] was “fungicidal effects” and the “Colony-forming units (CFU/g)” value ([3]; 20% w/w glucosylglycerol, 0 days) was 300,000 CFU/g. For the same molecule, the “Colony-forming units (CFU/g)” value ([3]; 20% w/w glucosylglycerol, 2 days) was 280,000 CFU/g, the “Colony-forming units (CFU/g)” value ([3]; 20% w/w glucosylglycerol, 7 days) was 100,000 CFU/g and the “Colony-forming units (CFU/g)” value ([3]; 20% w/w glucosylglycerol, 14 days) was 5,000 CFU/g. The “Colony-forming units (CFU/g)” value ([3]; 20% w/w glucosylglycerol, 21 days) was <100 CFU/g, the “Colony-forming units (CFU/g)” value ([3]; 20% w/w glucosylglycerol, 28 days) was <100 CFU/g and the “Colony-forming units (CFU/g)” value ([3]; 30% w/w glucosylglycerol, 0 days) was 300,000 CFU/g. The “Colony-forming units (CFU/g)” value ([3]; 30% w/w glucosylglycerol, 2 days) was 130,000 CFU/g, the “Colony-forming units (CFU/g)” value ([3]; 30% w/w glucosylglycerol, 7 days) was <1,000 CFU/g and the “Colony-forming units (CFU/g)” value ([3]; 30% w/w glucosylglycerol, 14 days) was <100 CFU/g. For the same molecule, the “Colony-forming units (CFU/g)” value ([3]; 30% w/w glucosylglycerol, 21 days) was <100 CFU/g, the “Colony-forming units (CFU/g)” value ([3]; 30% w/w glucosylglycerol, 28 days) was <100 CFU/g and the “Colony-forming units (CFU/g)” value ([3]; 50% w/w glucosylglycerol, 0 days) was 300,000 CFU/g. The “Colony-forming units (CFU/g)” value ([3]; 50% w/w glucosylglycerol, 2 days) was 150,000 CFU/g, the “Colony-forming units (CFU/g)” value ([3]; 50% w/w glucosylglycerol, 7 days) was <1,000 CFU/g and the “Colony-forming units (CFU/g)” value ([3]; 50% w/w glucosylglycerol, 14 days) was <100 CFU/g. For the same molecule, the “Colony-forming units (CFU/g)” value ([3]; 50% w/w glucosylglycerol, 21 days) was <100 CFU/g, the “Colony-forming units (CFU/g)” value ([3]; 50% w/w glucosylglycerol, 28 days) was <100 CFU/g and the bactericidal effect [3, 4] was “highly bactericidal effects”.
